In PMC3191538 (Bioorganic & medicinal chemistry, 2011):
Several values for one entry are separate records, joined by “and”; a condition that tells them apart may be missing. Identical values can stand only once.

Assays:
[1] = system: Norwalk virus (NV) replicon in HG23 cells; assay: Antiviral effect in NV replicon-harboring cells; format: cell-based; conditions: discussion of Table 1
HG23 cells = assay: Cytotoxic effects on HG23 cells; format: cell-based; conditions: median toxic dose at 48 hr of treatment, 0-320 μM
[2] = system: Norwalk virus 3C protease; conditions: unpublished data; cited from earlier work

SMILES	anti-norovirus activity (in words) [1]	TD50 (HG23 cells)	inhibition of Norwalk virus 3C protease (in words) [2]
O=C(O)CN1CCN(Cc2cccc(Oc3ccccc3)c2)S1(=O)=O [Compound 14a, [5-(3-Phenoxybenzyl)-1,1-dioxido-1,2,5-thiadiazolidin-2-yl]acetic acid]	active	–	–
O=S1(=O)N(CCN2CCOCC2)CCN1Cc1cccc(Oc2ccccc2)c1 [Compound 17a, 4-{2-[5-(3-Phenoxybenzyl)-1,1-dioxido-1,2,5-thiadiazolidin-2-yl]ethyl}morpholine]	–	51 ± 3.2 µM and 49 ± 7.7 µM	–
NC(=O)CN1CCN(Cc2cccc(Oc3ccccc3)c2)S1(=O)=O [Compound 13m, 2-[5-(3-Phenoxybenzyl)-1,1-dioxido-1,2,5-thiadiazolidin-2-yl]acetamide]	lacked activity	–	–
O=S1(=O)NCCN1CC1CCCN(Cc2ccccc2)C1 (stereo not shown) [Compound 12, 1-Benzyl-3-[(1,1-dioxido-1,2,5-thiadiazolidin-2-yl)methyl]piperidine]	devoid of anti-norovirus activity	–	–
O=S1(=O)NCCN1Cc1cccc(Oc2ccccc2)c1 [Compound 2a, 2-(3-Phenoxybenzyl)-1,2,5-thiadiazolidine 1,1-dioxide]	–	50 ± 9.2 µM	does not arise from the inhibition of Norwalk virus 3C protease
O=C(O)CCCCN1CCN(Cc2cccc(Oc3ccccc3)c2)S1(=O)=O [Compound 14d, 5-[5-(3-Phenoxybenzyl)-1,1-dioxido-1,2,5-thiadiazolidin-2-yl]pentanoic acid]	active	–	–
